Assay results taken from patent US20240343727A1, “PYRIDAZINONE OR PYRIDINONE COMPOUNDS, PREPARATION METHODS AND USES THEREOF” (InventisBio Co., Ltd., priority 2021, published 2024).

Experiments:
[1] = biological target: T1, PARP7 (Homo sapiens, UniProt Q7Z3E1); test: PARP7 TR-FRET assay (binding, displacement of biotinylated Probe A); conditions: 6 nM PARP7, 2 nM Probe A, 25° C., 30 min
T1 sequence (Q7Z3E1 1-657): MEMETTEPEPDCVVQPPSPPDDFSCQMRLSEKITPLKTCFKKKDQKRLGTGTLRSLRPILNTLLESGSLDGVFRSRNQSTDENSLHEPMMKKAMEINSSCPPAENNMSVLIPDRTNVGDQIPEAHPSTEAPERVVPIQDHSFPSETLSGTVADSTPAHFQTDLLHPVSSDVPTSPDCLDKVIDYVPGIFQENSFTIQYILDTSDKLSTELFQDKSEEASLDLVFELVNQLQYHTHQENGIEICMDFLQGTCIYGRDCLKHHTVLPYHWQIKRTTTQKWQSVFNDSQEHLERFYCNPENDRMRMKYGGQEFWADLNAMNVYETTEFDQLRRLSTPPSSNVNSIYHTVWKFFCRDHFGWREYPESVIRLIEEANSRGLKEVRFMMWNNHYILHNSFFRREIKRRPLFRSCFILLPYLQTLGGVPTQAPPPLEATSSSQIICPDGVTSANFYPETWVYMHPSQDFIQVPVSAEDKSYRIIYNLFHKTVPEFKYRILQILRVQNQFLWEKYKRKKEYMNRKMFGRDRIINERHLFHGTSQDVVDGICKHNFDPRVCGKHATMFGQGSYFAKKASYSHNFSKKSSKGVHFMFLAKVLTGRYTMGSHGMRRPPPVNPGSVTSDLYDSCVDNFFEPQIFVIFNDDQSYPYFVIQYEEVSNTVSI
In short: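 His-tagged PARP7 at 6 nM was preincubated with compound and 2 nM biotinylated Probe A for 30 min at 25° C (HEPES pH 8.0, NaCl, BSA, DTT, Tween20). Europium-streptavidin/ULight-anti-His FRET was read as the 665/615 nm ratio after a further 30 min. IC50 was fitted from % inhibition normalised to vehicle and blank.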

[2] = system: NCI-H1373 cells; test: Inhibition of cancer cell growth in NCI-H1373 cells (Cell-titer Glo, 6 days); assay type: cell-based; conditions: Homo sapiens, NCI-H1373, 144 h, read-out: H1373 Cell Proliferation IC50
Procedure: Biological Assay Example B: Inhibition of cancer cell growth in NCI-H1373 cells by PARP7 inhibitors
NCI-H1373 cells were cultured in RPMI 1640 medium supplemented with 10% fetal bovine serum, 100 U/mL penicillin and 100 ug/mL streptomycin in a 37° C., 5% CO2 incubator. Fifteen hundred cells were seeded into each well of 96-well plate in RPMI1640 medium containing 10% fetal bovine serum and incubated overnight. Serial diluted compounds for each well were added at a final DMSO concentration of 0.5% and a day zero plate was collected for analysis. Compounds were incubated with the cells for 6 days. Cell growth was assessed using Cell-titer Glo reagent (Promega #G^7572). The luminescence signal was collected on Tecan Spark plate reader. Cell growth is determined by correcting for the cell count on day zero. Inhibition rate is calculated with the formula of % inhibition=100*(DMSO control-compounds)/(DMSO control-Blank). Cell growth inhibition IC50 is calculated with the equation of Y-Bottom+ (Top-Bottom)/(1+10^((LogIC50−X) *Hill Slope)).

[3] = system: tumor; conditions: according to the description in clinicaltrials.gov (NCT04053673); cited from earlier work

Row | Compound | IC50 [1] [nM] | IC50 [2] [nM] | tumor growth in animal studies [3]
1 | CC(C)(O)c1cnc(N2CCN(C(=O)c3cccc(Oc4n[nH]c(=O)c(C(F)(F)F)c4N4CC5(CCC5)C4)c3)CC2)nc1 [Compound 349] | < 100 | < 100 | 
2 | C[C@@H]1CN(C(=O)c2cc(Oc3n[nH]c(=O)c(C(F)(F)F)c3N3CC4(CCC4)C3)ccn2)CCN1c1cnc(C(F)(F)F)cn1 [Compound 353] | < 100 | < 100 | 
3 | C[C@@H](COCCC(=O)N1CCN(c2ncc(C(F)(F)F)cn2)CC1)Nc1cn[nH]c(=O)c1C(F)(F)F [RBN2397] |  |  | inhibit tumor growth

Now from value to compound, other results behind:

Row | IC50 [1] [nM] | IC50 [2] [nM] | Compound | tumor growth in animal studies [3]
4 | < 100 | < 100 | O=C(c1cc(Oc2n[nH]c(=O)c(C(F)(F)F)c2N2CC3(C2)CC(F)(F)C3)ccn1)N1CCN(c2cnc(C(F)(F)F)cn2)CC1 [Compound 331] | 
5 | < 100 | < 100 | CCOC1CN(c2c(Oc3ccnc(C(=O)N4CCN(c5ncc(C(F)(F)F)cn5)[C@H](C)C4)c3)n[nH]c(=O)c2C(F)(F)F)C1 [Compound 339] | 
